# US12691070B2, “Cationic lipids and preparation method thereof” (RiboX Therapeutics HK Limited, priority 2023, dated 2026)
# What was measured:
# RAW 264.7 cells [1] = experiment: In vitro toxicity (CellTiter-Glo cell viability), RAW 264.7; type: cell-based;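 further: percent of untreated cells luminescence signal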
# How it was run: (§1)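 Viability after a 72 h incubation with 1 μg/mL RNA-LNP formulations was assessed luminometrically using CellTiter-Glo.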
# MCP-I = MCP-I cytokine elevation in serum; type: in vivo; conditions: cirRNA (SEQ ID NO: 1) LNPs, mice
# Experimental: 6-8 week old, female BALB/C mice were injected with 0.5 mg*kg-1 of RNA LNPs by intravenous injection. At 2 and 24 hours post injection, animals were bled and sera concentrations of MCP-I were determined by an immunoassay (Luminex).
# [2] = test system: Aspartate Aminotransferase (AST); experiment: Liver enzyme elevation in serum, AST; type: in vivo; conditions: cirRNA (SEQ ID NO: 1) LNPs, BALB/C mice, intravenous 0.5 MPK
# Experimental: (§2) 6-8 week old, female BALB/C mice were injected with 0.5 mg*kg-1 of RNA LNPs by intravenous injection. At 2 and 24 hours post injection, animals were bled and sera concentrations of Alanine Aminotransferase (ALT) and Aspartate Aminotransferase (AST) were determined by a blood chemistry analyzer.
# [3] = LNP zeta potential (Zetasizer); type: physicochemical
# How it was run: (§3)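 Ribogreen fluorescence with and without Triton X-100 gave encapsulation as 100% − (intact/lysed) signal; DLS size, PDI and zeta potential measured on a Zetasizer. Particles: 50:10:38.5:1.5 lipid mix, luciferase circRNA or mRNA, lipid:nucleotide 15 or 6, microfluidic assembly at pH 4.5, PBS-dialyzed.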
# RAW 264.7 cells [4] = experiment: In vitro expression of firefly-luciferase, RAW 264.7; type: cell-based
# How it was run: (§4)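 Luminescence from cell lysates reports expression: luciferase activity was measured 72 h after transfection with 100 ng/mL RNA-LNPs encoding firefly luciferase.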
# Hep G2 cells [5] = experiment: In vitro expression of firefly-luciferase, Hep G2; type: cell-based
# How it was run: as §4
# [6] = LNP size and polydispersity index (PDI) by dynamic light scattering; type: physicochemical; conditions: for Size: in nm (unit assumed)
# How it was run: as §3
# BALB/C mice [7] = experiment: Local tolerance determination by footpad injection; type: in vivo; conditions: cirRNA (SEQ ID NO: 1) LNP, 0.175 mg*kg-1 subcutaneous into the footpad, 24 hours post minus prior
# Experimental: 6-8 week old, female BALB/C mice were injected with 0.175 mg*kg-1 RNA LNPs by subcutaneous injection into the footpad. Prior to, and 24 hours post injections, injected footpad thickness was determined by a caliper.
# [8] = test system: Alanine Aminotransferase (ALT); experiment: Liver enzyme elevation in serum, ALT; type: in vivo; conditions: cirRNA (SEQ ID NO: 1) LNPs, BALB/C mice, intravenous 0.5 MPK
# Experimental: as §2
# [9] = RNA encapsulation efficacy by Quant-IT Ribogreen kit; type: physicochemical; conditions: for Encapsulation Efficiency %: LNP with cirRNA (SEQ ID NO: 1); for Encapsulation Efficiency: LNP with mRNA (SEQ ID NO: 2)
# How it was run: as §3
# BALB/C mice [10] = experiment: In vivo expression, whole-body luminescence (IVIS)
# Experimental: 6-8 week old, female BALB/C mice were injected with 0.05 mg*kg-1 of RNA-LNPs encoding for firefly-luciferase by intravenous injection. At 6 hours post injection, animals were intraperitoneally injected with 15 mg/ml of Luciferin substrate and whole-body luminescence was determined by a bioluminescent in vivo imaging system (IVIS).
# Hep G2 cells [11] = experiment: In vitro toxicity (CellTiter-Glo cell viability), Hep G2; type: cell-based;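 further: percent of untreated cells luminescence signal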
# How it was run: as §1
# [12] = cirRNA (SEQ ID NO: 1) LNPs, RAW 264.7 cells
# [13] = mRNA (SEQ ID NO: 2) LNP, 1 μg/mL, 72 hours post transfection
# [14] = cirRNA (SEQ ID NO: 1) LNPs, firefly-luciferase luminescence, RAW 264.7 cells
# [15] = mRNA (SEQ ID NO: 2) LNP, 100 ng/mL, 72 hours post transfection, luciferase activity
# [16] = cirRNA (SEQ ID NO: 1) LNPs, firefly-luciferase luminescence, Hep G2 cells
# [17] = cirRNA (SEQ ID NO: 1) LNPs, BALB/C mice
# [18] = mRNA (SEQ ID NO: 2) LNP, 0.05 mg*kg-1 intravenous, 6 hours post injection
# [19] = cirRNA (SEQ ID NO: 1) LNPs, Hep G2 cells
Compound,In vitro Viability RAW (RAW 264.7 cells [1]; [12]) [%],Zeta (mV) ([3]; LNP with cirRNA (SEQ ID NO: 1)),In vitro Expression RAW (RAW 264.7 cells [4]; [14]),In vitro Expression HepG2 (Hep G2 cells [5]; [16]),PDI ([6]; LNP with cirRNA (SEQ ID NO: 1)),Size ([6]; LNP with cirRNA (SEQ ID NO: 1)),Encapsulation Efficiency % [9] [%],In vivo Expression (Whole Body) (BALB/C mice [10]; [17]),In vitro Viability HepG2 (Hep G2 cells [11]; [19]) [%],further results
CCCCCCCCCC(=O)OCCCCCCCN(CCCCCCCCOC(=O)C(CCCCCC)CCCCCCCC)CCOC(=O)NCCN1CCCCC1 (centres unmarked) [Lipid 196],91,0.4256,1.22E+04,5.54E+04,0.0364,89.57,93,1.86E+07,103,"In vitro Viability RAW (RAW 264.7 cells [1]; [13]): 110%; MCP-I in Sera 2 hours After 0.5 MPK Injection (MCP-I): 489.33 pg/mL; MCP-I in Sera 24 hours After 0.5 MPK Injection (MCP-I): 197.30 pg/mL; AST in Sera (IU/L) 2 hours After 0.5 MPK Injection [2]: 202.33 IU/L; AST in Sera (IU/L) 24 hours After 0.5 MPK Injection [2]: 180.67 IU/L; Zeta (mV) ([3]; LNP with mRNA (SEQ ID NO: 2)): −2.076 mV; In vitro Expression RAW (RAW 264.7 cells [4]; [15]): 2.31E+06; In vitro Expression HepG2 (Hep G2 cells [5]; [15]): 1.58E+06; PDI ([6]; LNP with mRNA (SEQ ID NO: 2)): 0.1806; Size ([6]; LNP with mRNA (SEQ ID NO: 2)): 117.5; Footpad Thickness (24 h−0 h, mm) (BALB/C mice [7]): 0.44 mm; ALT in Sera (IU/L) 2 hours After 0.5 MPK Injection [8]: 80.33 IU/L; ALT in Sera (IU/L) 24 hours After 0.5 MPK Injection [8]: 93.00 IU/L; Encapsulation Efficiency [9]: 91.87%; In vivo Expression (Whole Body) (BALB/C mice [10]; [18]): 1.41E+08; In vitro Viability HepG2 (Hep G2 cells [11]; [13]): 91%"
CCCCCCCCC(CCCCCCCC)OC(=O)CCCCCCCN(CCCCCCCCOC(=O)C(CCCCCC)CCCCCCCC)CCCOC(=O)NCCCN(C)C (centres unmarked) [Lipid 348],73,1.734,2.47E+05,1.59E+06,0.2546,100.8,98,6.47E+07,65,"In vitro Viability RAW (RAW 264.7 cells [1]; [13]): 77%; MCP-I in Sera 2 hours After 0.5 MPK Injection (MCP-I): 1894.33 pg/mL; MCP-I in Sera 24 hours After 0.5 MPK Injection (MCP-I): 128.60 pg/mL; AST in Sera (IU/L) 2 hours After 0.5 MPK Injection [2]: 307.00 IU/L; AST in Sera (IU/L) 24 hours After 0.5 MPK Injection [2]: 148.00 IU/L; Zeta (mV) ([3]; LNP with mRNA (SEQ ID NO: 2)): 8.774 mV; In vitro Expression RAW (RAW 264.7 cells [4]; [15]): 2.52E+03; In vitro Expression HepG2 (Hep G2 cells [5]; [15]): 1.45E+07; PDI ([6]; LNP with mRNA (SEQ ID NO: 2)): 0.1488; Size ([6]; LNP with mRNA (SEQ ID NO: 2)): 101.8; Footpad Thickness (24 h−0 h, mm) (BALB/C mice [7]): 0.78 mm; ALT in Sera (IU/L) 2 hours After 0.5 MPK Injection [8]: 82.33 IU/L; ALT in Sera (IU/L) 24 hours After 0.5 MPK Injection [8]: 96.33 IU/L; Encapsulation Efficiency [9]: 83.15%; In vivo Expression (Whole Body) (BALB/C mice [10]; [18]): 1.87E+07; In vitro Viability HepG2 (Hep G2 cells [11]; [13]): 60%"
"CCCCC/C=C\C/C=C\CCCCCCCCN(CCCCCC(=O)OCC(CCCCCCCC)CCCCCCCCCC)CCOC(=O)NCCN1CCOCC1 (centres unmarked) [Lipid 79, 2-octyldodecyl 6-((2-(((2-morpholinoethyl)carbamoyl)oxy)ethyl)((9Z,12Z)-octadeca-9,12-dien-1-yl)amino)hexanoate]",104,−2.908,4.60E+01,3.94E+03,0.2181,99.18,93,4.70E+07,104,–
"CCCCCCCCC(CCCCCCCC)OC(=O)CCCCCCCN(CCCCCCCCOC(=O)C(CCCCCC)CCCCCCCC)CCOC(=O)NCCCn1ccnc1 (centres unmarked) [Lipid 147, 8-((2-(((3-(1H-imidazol-1-yl)propyl)carbamoyl)oxy)ethyl)(8-(heptadecan-9-yloxy)-8-oxooctyl)amino)octyl 2-hexyldecanoate]",65,4.888,7.92E+03,1.60E+04,0.07303,53.54,86,5.02E+07,87,–
CCCCCCCCCCCOC(=O)CCCCCN(CCCCCCCCOC(=O)C(CCCCCC)CCCCCCCC)CCOC(=O)NCCN1CCCC1 (centres unmarked) [Lipid 226],108,14.86,9.79E+03,7.79E+05,0.298,115.7,95,2.20E+07,91,–
CCCCC/C=C\C/C=C\CCCCCCCCN(CCCCCCCC/C=C\C/C=C\CCCCC)CCOC(=O)NCCN1CCCCC1 [Lipid 85],105,4.031,5.74E+05,2.85E+07,0.1671,81.48,91,1.96E+07,78,–
CCCCCCCCCCC(CCCCCCCC)COC(=O)CCCCCN(CCCCCC(=O)OCC(CCCCCCCC)CCCCCCCCCC)CCOC(=O)NCCCN(CC)CC (centres unmarked) [Lipid 172],90,1.36,5.83E+05,1.12E+07,0.2521,67.53,83,2.14E+07,41,–
CCCCCCCC/C=C\CCCCCCCCN(CCCCCCCCOC(=O)C(CCCCCC)CCCCCCCC)CCOC(=O)NCCN1CCCC1 (centres unmarked) [Lipid 218],62,5.94,9.16E+04,5.25E+06,0.3124,96.36,96,7.53E+07,71,–
CCCCCCCCCCC(CCCCCCCC)COC(=O)CCCCCN(CCCCCC(=O)OCC(CCCCCCCC)CCCCCCCCCC)CCCOC(=O)NCCCN(CC)CC (centres unmarked) [Lipid 366],99,−0.4163,2.01E+04,3.39E+05,0.2572,118.4,92,3.26E+06,84,–
CCCCCCCCCCC(CCCCCCCC)COC(=O)CCCCCN(CCCCCC(=O)OCC(CCCCCCCC)CCCCCCCCCC)CCCOC(=O)NCCN1CCCCCC1 (centres unmarked) [Lipid 373],91,−3.695,2.32E+04,5.98E+04,0.2353,92.65,92,5.62E+06,63,–
CCCCC/C=C\C/C=C\CCCCCCCCN(CCCCCCCC(=O)OC(CCCCCCCC)CCCCCCCC)CCCOC(=O)NCCN1CCOCC1 [Lipid 274],127,−2.714,4.30E+05,4.11E+06,0.112,50.6,94,2.06E+07,97,–
